Results on one compound are retold here after US11234979B2, “Heteroaryl compounds as muscarinic M1 receptor positive allosteric modulators” (SUVEN LIFE SCIENCES LIMITED, priority 2017, dated 2022).

Series [1] has as its system Male Wistar rats. The experiment in a line: Object recognition task model. Format: in vivo. To be noted: rat, 3 mg/kg, p.o. The procedure: Object Recognition Task Model
The cognition enhancing properties of compounds of this invention were estimated by using this model.
Male Wistar rats (8-10 weeks old) were used as experimental animals. Four animals were housed in each cage. Animals were kept on 20% food deprivation from a day prior to experimentation. Water was provided ad libitum throughout the experiment. Animals were maintained on a 12 hours light/dark cycle in temperature and humidity controlled room. The experiment was carried out in a circular or square arena made up of acrylic. Rats were habituated to individual arenas for up to 1 hour in the absence of any objects on day 1.
One group of 12 rats received vehicle and another set of animals received compound of the formula (I), before the familiar (T1) and choice (T2) trials. During the familiarization phase, (T1), the rats were placed individually in the arena for 3 minutes, in which two identical objects (a1 and a2) were positioned 10 cm from the wall. 24 hours after T1, trial for long-term memory test was performed. The same rats were placed in the same arena as they were placed in T1 trial. During the choice phase (T2) rats were allowed to explore the arena for 3 minutes in presence of a copy of familiar object (a3) and one novel object (b). During the T1 and T2 trial, explorations of each object (defined as sniffing, licking, chewing or having moving vibrissae whilst directing the nose towards the object at a distance of less than 1 cm) were recorded using stopwatch.
T1 is the total time spent exploring the familiar objects (a1+a2).
T2 is the total time spent exploring the familiar object and novel object (a3+b).
The object recognition test was performed as described by Ennaceur, A., Delacour, J., 1988, A new one-trial test for neurobiological studies of memory in rats˜Behavioural data, Behav. Brain Res., 31, 47-59.

Series [2] is described as follows: Rodent pharmacokinetic study. To be noted: male, Wistar, rat, plasma. Format: in vivo, Male Wistar rats. The procedure: Rodent Pharmacokinetic Study
Male Wistar rats (260±50 grams) were used as experimental animals. Animals were housed individually in polypropylene cage. Two days prior to study, male Wistar rats were anesthetized with isoflurane for surgical placement of jugular vein catheter. Rats were randomly divided for oral (3 mg/kg) and intravenous (i.v) (1 mg/kg) dosing (n=3/group) and fasted overnight before oral dosing (p.o.). However, rats allocated to intravenous (i.v.) dosing food and water was provided ad libitum.
At pre-determined point, blood was collected through jugular vein and replenished with an equivalent volume of normal saline. Collected blood was transferred into a labeled eppendorf tube containing 10 μL of heparin as an anticoagulant. Typically blood samples were collected at following time points: 0.08, 0.25, 0.5, 1, 2, 4, 6, 8, and 24 hours post dose. Blood was centrifuged at 4000 rpm for 10 minutes. Plasma was separated and stored frozen at −80° C. until analysis. The concentrations of the test compounds were quantified in plasma by qualified LC-MS/MS method using suitable extraction technique. The test compounds were quantified in the calibration range around 1-1000 ng/mL in plasma. Study samples were analyzed using calibration samples in the batch and quality control samples spread across the batch.
Pharmacokinetic parameters Cmax, AUCt, T1/2, clearance and bioavailability (F) were calculated by non-compartmental model using standard non-compartmental model by using Phoenix WinNonlin 6.0.2 or 6.0.3 version Software package.

Setting [3] is: choice trial T2, 24 hours after T1.

The AUC(0-t) is exposure summed from dosing to a finite time, without extrapolation to infinity. The low end stands for less exposure, the high end for more exposure. The term half-life denotes how long it takes for the measured level to halve. Lower therefore signals rapid decline. As usually defined, the clearance is a measure of how efficiently the substance is removed, as volume per time. The term bioavailability denotes the share of a dose that reaches the circulation, judged against a reference dose that is usually intravenous. A low value points to little systemic uptake. One may read the Cmax as the maximum level reached in the sampled fluid or tissue. As to `Cn1cc(-c2ccc(Cc3cc(C(=O)N[C@H]4CCCC[C@@H]4O)n4ncccc34)cc2)cn1` [Example 32, N-(cis-1S,2S-2-Hydroxycyclohexyl)-5-[4-(1-methyl-1H-pyrazol-4-yl)-benzyl]-pyrrolo [1,2-b]pyridazine-7-carboxamide], in series [1], the Inference entry is recorded as “Active”. Also, in series [1] (setting [3]), the “Exploration time mean ± S.E.M, Familiar object” value was determined as 11.64 ± 2.16 s and the “Exploration time mean ± S.E.M, Novel object” value came to 19.81 ± 2.96 s. In addition, in series [2] (iv, i.v. 1 mg/kg), the AUC(0-t) came out at 3.26 ± 0.802 µg·h/mL, the half-life is 3.2 ± 1.2 h and the clearance was found to be 0.312 ± 0.084 L/h/kg. In series [2] (oral 3 mg/kg vs i.v. 1 mg/kg, bioavailability), this compound displayed a bioavailability of 50 ± 17%. In series [2] (oral 3 mg/kg), this compound showed an AUC(0-t) of 4.9 ± 1.64 µg·h/mL, a Cmax of 0.65 ± 0.224 µg/mL and a half-life of 3.2 ± 0.4 h.
